The record followed here is article PMC9995496, “A screen for MeCP2-TBL1 interaction inhibitors using a luminescence-based assay” (Scientific Reports, 2023).

In assay [1] the test system is PRKACA-PRKAR2A interaction (SmBiT-PRKACA / LgBiT-PRKAR2A), protein kinase A. Briefly: PKA-based NanoLuc complementation control assay (counter-screen). Format: binding, human. To be noted: 20 µM; for Inh (PKA): ApexBio FDA-approved Drug Library screen. The arrangement: Inh (PKA): unit not given here. From the text:
To distinguish such false positives from genuine inhibitors of the interaction between MeCP2 and TBL1/TBLR1, a control screen is essential, utilising the same NanoLuc SmBiT and LgBiT fragments, but with an unrelated protein interaction pair. The interaction between PRKACA and PRKAR2A, which are the catalytic and regulatory subunits of human protein kinase A (PKA) respectively, has previously been measured using a NanoLuc complementation assay. We tested this pair of interacting proteins for activity in a NanoLuc complementation assay under our conditions. […] We therefore selected the PKA-based NanoLuc complementation as a suitable control assay. The effects of the four compounds identified from the Asinex library were assessed in the control PKA-based NanoLuc assay.
The AgeI-NotI restriction fragment (encoding EGFP) was then replaced with a codon optimized SmBiT sequence to yield the MeCP2-SmBiT expression plasmid. […]
In the screens described here, the lysate obtained from a single 15 cm plate was used for 2.5 384-well assay plates. […] After 30 min incubation at room temperature, luminescence was measured on a Tecan M1000 multi-mode plate reader. Raw luminescence reads from each well on each plate were normalized to the median luminescence signal for that plate. […] After plate normalization the robust SSMD (SSMD*) was calculated as described elsewhere. […]
Assays were performed as described above except instead of a single concentration, a threefold serial dilution ranging from 60 to 0.03 μM was tested in triplicate for each of the compounds. Half-maximal inhibitory concentrations were calculated using global nonlinear regression by fitting the response data sets of all compounds simultaneously with a four-parameter logistic curve of log inhibitor concentration versus normalized luminescence using GraphPad Prism. […] The luminescence signal of each compound concentration was normalized by dividing the luminescence signal of the DMSO control.
On the technique in general: The purpose of a counterscreen is to sort out artefacts and off-target activity.

Assay [2] has as its target T1, MeCP2-TBL1 interaction (MeCP2-SmBiT / TBL1-LgBiT) (Mus musculus, UniProt Q9QXE7).
T1 construct: expressed in transfected cells; crude lysate used as a cell-free assay
T1 sequence (Q9QXE7 166-527): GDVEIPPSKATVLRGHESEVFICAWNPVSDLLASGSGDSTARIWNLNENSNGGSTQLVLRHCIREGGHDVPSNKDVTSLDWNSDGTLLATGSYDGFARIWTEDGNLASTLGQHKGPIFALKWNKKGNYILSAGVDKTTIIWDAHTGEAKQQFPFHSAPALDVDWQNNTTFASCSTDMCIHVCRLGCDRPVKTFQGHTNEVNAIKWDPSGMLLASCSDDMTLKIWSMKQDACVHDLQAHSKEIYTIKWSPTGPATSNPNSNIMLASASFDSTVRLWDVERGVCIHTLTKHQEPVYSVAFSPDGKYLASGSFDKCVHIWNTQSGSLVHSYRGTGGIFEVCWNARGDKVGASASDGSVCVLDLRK
As to the kind of experiment: MeCP2-TBL1 NanoLuc luciferase complementation assay (cell-free, extracts of transfected HEK293 cells). It counts as binding, human. The note with it: for extent of MeCP2-TBL1 inhibition reached within the tested concentration range / separation between MeCP2-TBL1 inhibition and inhibition of the PKA control in dose response: 0.3–60 μM; for separation between MeCP2-TBL1 inhibition and inhibition of the PKA control in dose response: PKA-based assay run in parallel; for IC50: dose response 0.3–60 μM, triplicate, 30 min, luminescence normalized to DMSO, read-out: IC50, inhibition of MeCP2-TBL1 luminescence signal; for inhibition in MeCP2-TBL1 assay compared with control PKA-based assay, individual validation / inhibition at 20 µM / Inh (MeCP2-TBL1): 20 µM; for inhibition in MeCP2-TBL1 assay compared with control PKA-based assay, individual validation: n = 7, t-test; for inhibition at 20 µM: ApexBio library screen, threshold SSMD* ≥ 3, read-out: inhibition in MeCP2-TBL1 assay after adjusting for activity in the PRKACA-PRKAR2A assay; for Inh (MeCP2-TBL1): ApexBio FDA-approved Drug Library screen. Summed up: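 Cell-free split NanoLuc: lysate of HEK293 cells co-expressing the MeCP2 C-terminal half-SmBiT and TBL1 WD domain-LgBiT, mixed 1:1 with furimazine. After 30 min at room temperature, luminescence was plate-median normalized.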

The test system of assay [3] is PRKACA-PRKAR2A interaction (SmBiT-PRKACA / LgBiT-PRKAR2A), protein kinase A. The arrangement: NanoLuc complementation counter-screen in cell extract, PRKACA with PRKAR2A, loss of luminescence, detects NanoLuc interference. The note with it: counter-screen for NanoLuc interference; 0.5 h, 20 µM; inhibitor. As for the experimental part:
In the screens described here, the lysate obtained from a single 15 cm plate was used for 2.5 384-well assay plates. NanoLuc substrate (furimazine) (Promega, N1110) was diluted 1000-fold in passive lysis buffer (Promega, E1941) and added 1:1 to the lysate. Screening libraries were purchased from Asinex[40] and ApexBio (FDA-approved Drug Library, L1021). Compounds were dispensed using an Echo acoustic dispenser and tested at a final concentration of 20 µM in a total assay volume of 20 μl in 384-well plate format. DMSO was added to each well at a final concentration of 0.2% (v/v) and wells containing only DMSO were used as negative control. After 30 min incubation at room temperature, luminescence was measured on a Tecan M1000 multi-mode plate reader. Raw luminescence reads from each well on each plate were normalized to the median luminescence signal for that plate. […] After plate normalization the robust SSMD (SSMD*) was calculated as described elsewhere. […] The interaction between PRKACA and PRKAR2A, which are the catalytic and regulatory subunits of human protein kinase A (PKA) respectively, has previously been measured using a NanoLuc complementation assay. […] The effects of the four compounds identified from the Asinex library were assessed in the control PKA-based NanoLuc assay. […]

One may read the IC50 as the point on the concentration scale where inhibition reaches its midpoint. As a reminder, the inhibition is the percentage by which the read-out fell short of the control.

Like-named read-outs stand apart in the source and are kept apart here. Ends that are not written are not given here. * marks the point of attachment. Biotin = O=C1N[C@H]2[C@H](CS[C@H]2CCCCC(=O)*)N1

For `C[C@H]1CC[C@H]2[C@H](O1)c1cc(OCC(=O)NCc3ccccc3)ccc1OC2(C)C` [BDG 34039627], the “effect on luminescence in PKA control assay” value in assay [1] (n = 3) was “did not cause a reduction in luminescence”. For the same compound, in assay [2], the “extent of MeCP2-TBL1 inhibition reached within the tested concentration range” value is reported as “able to return the luminesce signal back to baseline”; the “separation between MeCP2-TBL1 inhibition and inhibition of the PKA control in dose response” value was “clear separation”; the IC50 is 18 µM.
For the compound `CN(C)Cc1cccc(N/C(=C2\C(=O)Nc3cc(C(=O)N(C)C)ccc32)c2ccccc2)c1` [BIX02189, reference compound], in assay [2], the “inhibition in MeCP2-TBL1 assay compared with control PKA-based assay, individual validation” value is on record as “did not have a statistically different effect”; the “separation between MeCP2-TBL1 inhibition and inhibition of the PKA control in dose response” value is “only modest selectivity”; the inhibition at 20 µM is at least 35%; the IC50 worked out at 28 µM.
In the case of `O=C1C(Cl)=C(N2CCOCC2)C(=O)N1c1ccc(Cl)c(Cl)c1` [RI-1, reference compound], in assay [2], the “Inh (MeCP2-TBL1)” value is on record as 13.6055.
For `Oc1ccc(Nc2nc(-c3ccc(Cl)cc3)cs2)cc1` [SKI II, reference compound], the “Inh (PKA)” value in assay [1] turned out to be 14.6502. Moreover, the “Inh (MeCP2-TBL1)” value in assay [2] worked out at 10.5772.
As to `C=C1C(=O)O[C@@H]2[C@H]3O[C@]3(C)CC/C=C(\C)CC[C@@H]12` [UM0142841:01, Parthenolide], the “Inh (PKA)” value in assay [3] was 0.7412%.
With `COc1ccc(/C(Cl)=C(/C=O)c2ccc(OC)cc2)cc1` [Windorphen, reference compound], the “Inh (PKA)” value in assay [1] is 33.916. Besides, the “Inh (MeCP2-TBL1)” value in assay [2] came to 12.6933.
For `CCNC(=O)c1noc(-c2cc(C(C)C)c(O)cc2O)c1-c1ccc(CN2CCOCC2)cc1` [luminespib, reference compound], in assay [2], the “inhibition in MeCP2-TBL1 assay compared with control PKA-based assay, individual validation” value is “statistically significantly greater”; the “extent of MeCP2-TBL1 inhibition reached within the tested concentration range” value is recorded as “without being able to completely inhibit MeCP2-TBL1 binding”; the “separation between MeCP2-TBL1 inhibition and inhibition of the PKA control in dose response” value is on record as “clear separation”; the inhibition at 20 µM was at least 35%. Besides, in assay [2], the IC50 is 31 µM.
`C=C1C(=O)[C@]23[C@H](O)[C@H]1CC[C@H]2[C@@]12CO[C@]3(O)[C@@H](O)[C@@H]1C(C)(C)CC[C@@H]2O` [oridonin, reference compound]: in assay [2], the “inhibition in MeCP2-TBL1 assay compared with control PKA-based assay, individual validation” value was “statistically significantly greater”; the “separation between MeCP2-TBL1 inhibition and inhibition of the PKA control in dose response” value is “only modest selectivity”; the inhibition at 20 µM was at least 35%; the IC50 came to 34 µM.
As to “LSSWVLLMK [AAT, alpha-1 antitrypsin fragment 235–243, reference compound]”, in assay [2], the “inhibition in MeCP2-TBL1 assay compared with control PKA-based assay, individual validation” value was “statistically significantly greater”; the “extent of MeCP2-TBL1 inhibition reached within the tested concentration range” value is reported as “able to return the luminesce signal back to baseline”; the “separation between MeCP2-TBL1 inhibition and inhibition of the PKA control in dose response” value is given as “clear separation”; the inhibition at 20 µM was at least 35%.
As to “control peptide with the R306C mutation: 35 amino acid MeCP2 NID peptide (residues 285-319) carrying the R306C mutation, N-terminal biotin (Biotin-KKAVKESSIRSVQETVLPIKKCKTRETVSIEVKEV; UniProt P51608 285-319, looked up, variant R306C) [reference compound]”, the “effect of competitor peptide on MeCP2-TBL1 luminescence signal” value in assay [2] (peptide at 20 µM, n = 2) is given as “failed to substantially affect”.
